This assay has as its target Voltage-dependent calcium channel subunit alpha-2/delta-1 (Homo sapiens, UniProt P54289). Kind of assay: Binding Assay: α2δ-1: Binding Assay to Human α2δ-1 Subunit of Cav2.2 Calcium Channel.Human α2δ-1 enriched membranes (2.5 μg) were incubated with 15 nM of radiolabeled [3H]-Gabapentin in assay buffer containing Hepes-KOH 10 mM, pH 7.4.NSB (non specific binding) was measured by adding 10 μM pregabalin. After 60 min incubation at 27° C., binding reaction was terminated by filtering through Multiscreen GF/C (Millipore) presoaked in 0.5% polyethyleneimine in Vacuum Manifold Station, followed by 3 washes with ice-cold filtration buffer containing 50 mM Tris-HCl, pH 7.4.Filter plates were dried at 60° C. for 1 hour and 30 μl of scintillation cocktail were added to each well before radioactivity reading.Readings were performed in a Trilux 1450 Microbeta radioactive counter (Perkin Elmer).

The structures appear in SMILES notation.

Voltage-dependent calcium channel subunit alpha-2/delta-1, sequence (P54289 25-956 limits assumed): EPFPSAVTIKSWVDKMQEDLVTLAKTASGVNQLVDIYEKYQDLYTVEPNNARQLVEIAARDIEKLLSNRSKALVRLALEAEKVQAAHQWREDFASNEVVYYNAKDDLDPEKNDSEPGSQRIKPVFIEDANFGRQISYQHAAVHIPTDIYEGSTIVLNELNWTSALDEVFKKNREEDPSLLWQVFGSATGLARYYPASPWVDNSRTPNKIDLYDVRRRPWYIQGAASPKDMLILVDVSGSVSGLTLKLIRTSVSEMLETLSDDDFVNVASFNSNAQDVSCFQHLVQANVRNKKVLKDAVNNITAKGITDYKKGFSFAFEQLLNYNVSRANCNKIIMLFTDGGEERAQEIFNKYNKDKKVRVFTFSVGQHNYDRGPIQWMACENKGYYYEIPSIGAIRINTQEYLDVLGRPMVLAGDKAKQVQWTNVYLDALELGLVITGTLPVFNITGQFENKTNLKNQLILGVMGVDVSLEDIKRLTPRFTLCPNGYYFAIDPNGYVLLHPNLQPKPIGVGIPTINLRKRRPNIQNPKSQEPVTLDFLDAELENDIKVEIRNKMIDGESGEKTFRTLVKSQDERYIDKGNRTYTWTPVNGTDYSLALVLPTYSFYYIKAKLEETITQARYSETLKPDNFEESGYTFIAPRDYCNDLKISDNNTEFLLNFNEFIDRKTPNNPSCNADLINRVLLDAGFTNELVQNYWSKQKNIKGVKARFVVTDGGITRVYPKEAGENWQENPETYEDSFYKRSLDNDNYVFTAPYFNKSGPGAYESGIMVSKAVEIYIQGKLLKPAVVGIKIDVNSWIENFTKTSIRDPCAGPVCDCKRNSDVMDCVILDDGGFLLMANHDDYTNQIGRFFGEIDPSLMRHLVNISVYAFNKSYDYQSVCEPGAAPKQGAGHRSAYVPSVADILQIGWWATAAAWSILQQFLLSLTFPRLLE
Voltage-dependent calcium channel subunit alpha-2/delta-1, sequence (P54289 957-1103 limits assumed): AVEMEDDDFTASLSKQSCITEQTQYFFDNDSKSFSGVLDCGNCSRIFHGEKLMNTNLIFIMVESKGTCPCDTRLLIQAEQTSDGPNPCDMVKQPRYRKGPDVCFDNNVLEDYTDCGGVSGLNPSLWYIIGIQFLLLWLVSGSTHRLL

In the case of `CSc1ncc2c(n1)N(C)CCN(c1cccc(OC(CCN(CCF)C(=O)OC(C)(C)C)c3cccs3)c1)C2=O` (stereo not given), the inhibition constant (Ki) was above 3 µM.
As to `CNCC[C@H](Oc1cc(F)ccc1CN1CCN(C)c2nc(OC)ncc2C1=O)c1cccs1`, the Ki is above 3 µM.
Regarding `CSc1ncc2c(n1)N(C)CCN(c1cccc(-c3nnc(CN(C)C(=O)OC(C)(C)C)o3)c1)C2=O`, the inhibition constant Ki is above 3 µM.
In the case of `CCNc1cc2c(cn1)C(=O)N(c1cccc(COC(CCN(C)C(=O)OC(C)(C)C)c3ccccc3)c1)CCN2C` (stereo not given), the Ki is above 3 µM.
Regarding `CCNc1cc2c(cn1)C(=O)N(c1cccc(OC(CCN(C)C(=O)OC(C)(C)C)c3ccccc3)c1)CCN2C` (stereo not given), the Ki is above 3 µM.

The values above are taken from ChEMBL document CHEMBL5727627, “Tetrahydropyrimidodiazepine and dihydropyridodiazepine compounds for treating pain and pain related conditions” (2020).
